Data set [1] can be described thus: Cytotoxicity study using MTT assay, NIH/3T3. In kind it is cell-based, mouse. The conditions noted are these: mouse, NIH/3T3 fibroblast cells, extract, 24 h, MTT, mean, read-out: Cell Viability (%) NIH/3T3 M; for viability at 24 h, 20 µM (stock): NIH/3T3, inhibitor concentration 20 μM; for viability at 24 h, 50 µM (stock): NIH/3T3, inhibitor concentration 50 µM; for viability at 24 h, 100 µM (stock): NIH/3T3, inhibitor concentration 100 µM. Here is the method:
(§1) Two cell lines, fibroblastic cells NIH/3T3 from mouse embryo (93061524) obtained from Health Protection Agency Culture Collections and supplied by Sigma and MG-63 osteoblast-like cells from human osteosarcoma (ATCC® CRL-1427^TM) were used for cytotoxicity studies. Defrosting and handling of cell lines was carried out according to supplier information.
(§2) The NIH/3T3 cells were grown in Dulbecco’s Modified Eagle Medium (DMEM, Sigma) supplemented with 10% calf bovine serum (Sigma) and 1% Penicillin-Streptomycin solution: 10,000 U/mL penicillin, 10 mg/mL streptomycin, Sigma) and 2.5 mg/L amphotericin B (fungizone, Sigma). MG-63 cells were grown in Eagle’s Minimum Essential Medium (EMEM, Sigma) supplemented with 10% fetal bovine serum and 1% of antibiotics and 2.5 mg/L antimycotics solutions.
(§3) Extracts from each compound A, B or C were prepared by spreading 20 μL of a solution with 20 μM, 50 μM or 100 μM of each compound in a glass petri dish, allowed to dry, and incubated at 37 °C under humidified 5% CO2 for 24 h with 10 mL of the corresponding growth medium according to ISO 10993–12: 2012.
(§4) The cytotoxicity assay was performed as follows: 1 × 10^4 cells per well, from passages 8 to 12, were seeded in 96-well plates (eight replicates) and incubated at 37 °C under humidified 5% CO2 for 24 h. After proliferation, the cell medium was replaced by 200 μL of each extract and incubated under the same conditions for 24 h. As positive control cells were grown in their medium containing 7.5% DMSO (Sigma) and as negative control cells proliferated in medium without any toxic corresponding to 100% cell viability. MTT assays were performed as previously described. Briefly, extracts or medium were removed, an MTT solution (0.5 mg/mL prepared in serum-free medium, Sigma) was added to each well and cells were incubated for additional 3 h. After that, a solution containing 0.1% IGEPAL (Merck), 4 mM HCl (Sigma) in isopropanol (Sigma) was used to dissolve formazan. Plates were incubated with agitation for one hour and absorbance was read at 595 nm with a microplate reader (Bio-Rad®, Hercules, California, USA).
Background: Tetrazolium dyes change colour on reduction, which living cells bring about.

Data set [2] deals with NIH/3T3 fibroblast cells. Briefly: Cytotoxicity study using MTT assay, NIH/3T3. The conditions noted are these: NIH/3T3 cells, 50 and 100 µM. It counts as cell-based, mouse. Here is the method:
as §1, §2, §3, §4

Data set [3] is described as follows: Cytotoxicity study using MTT assay, MG-63. The following applies: human, MG-63 osteoblast-like cells, extract, mean, read-out: Cell Viability (%) MG-63 M; for viability at 24 h, 20 µM (stock): MG-63, inhibitor concentration 20 μM; for viability at 24 h, 50 µM (stock): MG-63, inhibitor concentration 50 µM; for viability at 24 h, 100 µM (stock): MG-63, inhibitor concentration 100 µM. In kind it is cell-based. Here is the method: as §1, §2, §3, §4

In data set [4] the test system is MMPs. Briefly: Preliminary biochemical tests (not shown). The following applies: data not shown, most MMPs. The text has this: However, there were additional interactions between the compounds and the enzyme depending on the enzyme class (collagenases and gelatinases) (See Appendix B, Appendix C, Appendix D and Appendix E).

3 compounds from PMC8065691, “Polymerizable Matrix Metalloproteinases’ Inhibitors with Potential Application for Dental Restorations” (Biomedicines, 2021) can be followed below.

In the case of `C=C(C)C(=O)Oc1ccc(-c2ccc(C#N)cc2)cc1` [Compound A, 4′-cyano-[1,1′-bihenyl]-4-yl methacrylate], in data set [1], the viability at 24 h, 20 µM (stock) was 85.1%; the viability at 24 h, 50 µM (stock) was found to be 54.2%; the viability at 24 h, 100 µM (stock) stood at 45.5%. For the same compound, in data set [2], the “toxicity according to ISO 10993–5: 2009 (viable cells decreased more than 30%)” value was “toxic”. Further, in data set [3], the viability at 24 h, 20 µM (stock) was determined as 82.6%; the viability at 24 h, 50 µM (stock) came to 73.6%; the viability at 24 h, 100 µM (stock) was 73%. In data set [4], the MMP activity reduction entry is given as “encouraging indications on activity reduction”.
Turning to `C=C(C)C(=O)OCCCCCOc1ccc(-c2ccc(C#N)cc2)cc1` [Compound B, 5-((4′-cyano-[1,1′-biphenyl]-4-yl)oxy)pentyl methacrylate], in data set [1], the viability at 24 h, 20 µM (stock) was 78.6%; the viability at 24 h, 50 µM (stock) stood at 50.5%; the viability at 24 h, 100 µM (stock) turned out to be 40.5%. The “toxicity according to ISO 10993–5: 2009 (viable cells decreased more than 30%)” value in data set [2] is “toxic”. Also, in data set [3], the viability at 24 h, 20 µM (stock) came out at 78.1%; the viability at 24 h, 50 µM (stock) was 70.3%; the viability at 24 h, 100 µM (stock) turned out to be 65.9%. The MMP activity reduction result in data set [4] is “encouraging indications on activity reduction”.
Consider `C=C(C)C(=O)Nc1ccc(Oc2ccc(NC(=O)C(=C)C)cc2)cc1` [Compound C, N,N′-(oxybis(4,1-phenylene))bis(2-methylacrylamide)], for which, in data set [1], the viability at 24 h, 20 µM (stock) was 83.7%; the viability at 24 h, 50 µM (stock) came out at 46.4%; the viability at 24 h, 100 µM (stock) came out at 42.4%. Further, the “toxicity according to ISO 10993–5: 2009 (viable cells decreased more than 30%)” value in data set [2] is recorded as “toxic”. For the same compound, in data set [3], the viability at 24 h, 20 µM (stock) came to 85%; the viability at 24 h, 50 µM (stock) came out at 65.8%; the viability at 24 h, 100 µM (stock) is 69.2%. In addition, the MMP activity reduction entry in data set [4] is “encouraging indications on activity reduction”.
